Measurements as given in US20250236608A1, “EGFR INHIBITORS” (Blueprint Medicines Corporation, priority 2022, published 2025).

Assays:
[1] = biological target: pEGFR (Tyr1068) in PC-9 cells (Ex19Del) (Homo sapiens (Human), UniProt P00533, DEL746-750); experiment: PC-9 pEGFR AlphaLISA assay; format: cell-based; conditions: 4 hours incubation, p-EGFR (Tyr1068) AlphaLISA, read-out: Ext pEGFR_PC-9 Ex19Del IC50
Procedure, shortened: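 Compounds are added in ten 4-fold dilutions to adherent cells grown in serum-containing (10% FBS) phenol-free DMEM and left for 4 hours at 37° C. Phosphorylated receptor in lysates is quantified by bead-based AlphaLISA. IC50 values derive from inhibition plotted against log dose.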

EGFR (d746-750) = EGFR (d746-750) (Homo sapiens (Human), UniProt P00533, DEL746-750); experiment: Biochemical EGFR inhibition assay, EGFR (d746-750); conditions: Caliper mobility shift; 1.0 mM ATP or ATP Km; read-out: Enz EGFR_Exon19-del746-750 IC50
Sequence of EGFR (d746-750) (P00533 other isoform, or with tags, fused parts or gaps del 1-694/del 746-750 limits assumed): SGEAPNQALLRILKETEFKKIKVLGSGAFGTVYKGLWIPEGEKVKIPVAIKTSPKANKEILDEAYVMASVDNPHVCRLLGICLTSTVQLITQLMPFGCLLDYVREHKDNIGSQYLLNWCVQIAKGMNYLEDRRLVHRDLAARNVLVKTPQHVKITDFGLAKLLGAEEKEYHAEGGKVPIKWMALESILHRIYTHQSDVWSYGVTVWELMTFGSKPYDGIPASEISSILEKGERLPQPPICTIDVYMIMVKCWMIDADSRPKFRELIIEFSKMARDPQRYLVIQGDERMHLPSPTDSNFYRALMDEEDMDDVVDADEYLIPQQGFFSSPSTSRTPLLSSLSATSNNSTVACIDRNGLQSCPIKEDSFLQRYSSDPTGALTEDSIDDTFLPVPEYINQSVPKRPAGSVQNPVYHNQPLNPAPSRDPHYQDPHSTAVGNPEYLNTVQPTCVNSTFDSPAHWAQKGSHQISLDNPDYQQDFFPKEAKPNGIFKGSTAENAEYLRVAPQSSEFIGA

EGFR L858R = EGFR L858R (Homo sapiens (Human), UniProt P00533, L858R); experiment: Biochemical EGFR inhibition assay, EGFR L858R; conditions: Caliper mobility shift; 1.0 mM ATP or ATP Km; read-out: Enz EGFR_L858R IC50
Sequence of EGFR L858R (P00533 25-1210 L858R): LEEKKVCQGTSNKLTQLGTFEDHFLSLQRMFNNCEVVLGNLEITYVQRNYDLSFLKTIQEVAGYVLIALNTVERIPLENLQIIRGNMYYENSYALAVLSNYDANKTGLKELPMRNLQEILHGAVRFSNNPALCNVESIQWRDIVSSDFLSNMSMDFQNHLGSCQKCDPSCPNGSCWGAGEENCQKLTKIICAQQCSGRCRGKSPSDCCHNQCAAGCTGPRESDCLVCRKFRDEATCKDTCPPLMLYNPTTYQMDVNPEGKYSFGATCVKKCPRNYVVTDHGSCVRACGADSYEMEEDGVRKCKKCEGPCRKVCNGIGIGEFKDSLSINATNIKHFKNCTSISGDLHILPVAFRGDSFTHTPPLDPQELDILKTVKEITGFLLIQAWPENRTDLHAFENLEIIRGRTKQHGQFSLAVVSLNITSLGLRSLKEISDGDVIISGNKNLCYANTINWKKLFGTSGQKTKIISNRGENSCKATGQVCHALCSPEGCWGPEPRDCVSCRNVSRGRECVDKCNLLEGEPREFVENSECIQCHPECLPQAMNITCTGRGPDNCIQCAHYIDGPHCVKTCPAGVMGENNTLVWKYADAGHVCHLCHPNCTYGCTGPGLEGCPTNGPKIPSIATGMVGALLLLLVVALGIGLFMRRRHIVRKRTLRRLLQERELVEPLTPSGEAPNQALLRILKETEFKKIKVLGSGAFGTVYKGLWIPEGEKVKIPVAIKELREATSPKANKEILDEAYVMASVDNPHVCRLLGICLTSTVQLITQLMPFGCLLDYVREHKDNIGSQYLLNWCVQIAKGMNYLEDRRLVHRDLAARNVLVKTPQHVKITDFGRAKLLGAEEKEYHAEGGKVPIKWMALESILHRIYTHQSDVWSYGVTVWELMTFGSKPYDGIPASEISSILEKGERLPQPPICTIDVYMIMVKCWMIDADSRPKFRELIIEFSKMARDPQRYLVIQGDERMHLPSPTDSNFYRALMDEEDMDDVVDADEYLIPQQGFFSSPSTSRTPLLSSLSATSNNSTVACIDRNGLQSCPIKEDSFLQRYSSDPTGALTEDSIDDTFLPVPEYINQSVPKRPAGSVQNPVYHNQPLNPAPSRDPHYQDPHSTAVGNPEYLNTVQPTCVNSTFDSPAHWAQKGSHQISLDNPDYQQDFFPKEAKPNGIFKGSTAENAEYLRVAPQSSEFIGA

Sequence of pEGFR (Tyr1068) in PC-9 cells (Ex19Del) (P00533 other isoform, or with tags, fused parts or gaps del 746-750): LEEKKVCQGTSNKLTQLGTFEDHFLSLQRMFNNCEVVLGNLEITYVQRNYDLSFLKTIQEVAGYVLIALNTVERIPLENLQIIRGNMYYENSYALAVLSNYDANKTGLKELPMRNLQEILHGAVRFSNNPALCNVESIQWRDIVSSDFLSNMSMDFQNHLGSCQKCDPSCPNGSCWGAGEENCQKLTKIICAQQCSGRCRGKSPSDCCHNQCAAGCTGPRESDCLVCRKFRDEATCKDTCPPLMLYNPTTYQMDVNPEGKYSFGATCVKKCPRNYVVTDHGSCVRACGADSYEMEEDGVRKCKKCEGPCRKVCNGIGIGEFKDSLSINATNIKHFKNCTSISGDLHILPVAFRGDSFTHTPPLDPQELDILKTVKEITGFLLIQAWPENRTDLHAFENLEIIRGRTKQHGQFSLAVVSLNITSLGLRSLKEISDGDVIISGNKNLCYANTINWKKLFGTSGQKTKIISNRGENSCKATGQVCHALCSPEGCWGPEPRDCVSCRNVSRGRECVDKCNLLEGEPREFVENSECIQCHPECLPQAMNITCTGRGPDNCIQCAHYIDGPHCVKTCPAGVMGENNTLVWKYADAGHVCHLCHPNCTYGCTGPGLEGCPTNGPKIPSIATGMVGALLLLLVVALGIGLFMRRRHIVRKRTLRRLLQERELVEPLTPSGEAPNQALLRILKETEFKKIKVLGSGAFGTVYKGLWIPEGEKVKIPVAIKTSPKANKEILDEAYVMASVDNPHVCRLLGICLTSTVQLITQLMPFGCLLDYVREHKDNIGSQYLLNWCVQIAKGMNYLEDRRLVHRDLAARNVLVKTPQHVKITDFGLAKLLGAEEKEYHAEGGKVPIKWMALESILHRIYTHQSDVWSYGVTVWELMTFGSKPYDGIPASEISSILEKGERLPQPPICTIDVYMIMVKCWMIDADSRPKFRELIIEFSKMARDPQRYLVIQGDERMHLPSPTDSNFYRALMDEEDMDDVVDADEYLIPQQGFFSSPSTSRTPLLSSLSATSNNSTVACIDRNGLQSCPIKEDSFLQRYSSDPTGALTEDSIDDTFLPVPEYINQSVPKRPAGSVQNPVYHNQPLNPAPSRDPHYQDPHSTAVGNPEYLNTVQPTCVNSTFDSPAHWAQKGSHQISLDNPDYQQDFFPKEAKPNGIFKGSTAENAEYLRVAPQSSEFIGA

SMILES	IC50 [1] [nM]	IC50 (EGFR (d746-750)) [nM]	IC50 (EGFR L858R) [nM]
COc1cc2ncnc(-c3cn(C)nc3-c3ccccc3)c2cc1O[C@@H]1CCN(C)C[C@H]1F [Example 1, 6-(((3R,4R)-3-fluoro-1-methylpiperidin-4-yl)oxy)-7-methoxy-4-(1-methyl-3-phenyl-1H-pyrazol-4-yl)quinazoline]	4.2	1.8	4.2
COc1cc2ncnc(-c3cn(C)nc3-c3ccccc3)c2nc1NC(=O)[C@]12COC[C@H]1C2 (single isomer, unassigned) [Example 432, (1S,5S)—N-(7-methoxy-4-(1-methyl-3-phenyl-1H-pyrazol-4-yl)pyrido[3,2-d]pyrimidin-6-yl)-3-oxabicyclo[3.1.0]hexane-1-carboxamide or (1R,5R)—N-(7-methoxy-4-(1-methyl-3-phenyl-1H-pyrazol-4-yl)pyrido[3,2-d]pyrimidin-6-yl)-3-oxabicyclo[3.1.0]hexane-1-carboxamide]	2.5	0.9	1.9
COc1cc2ncnc(-c3cn(C)nc3-c3ccccc3F)c2nc1NC(=O)[C@]12COC[C@H]1C2 (single isomer, unassigned) [Example 386, (1S,5S)—N-(4-(3-(2-fluorophenyl)-1-methyl-1H-pyrazol-4-yl)-7-methoxypyrido[3,2-d]pyrimidin-6-yl)-3-oxabicyclo[3.1.0]hexane-1-carboxamide or (1R,5R)—N-(4-(3-(2-fluorophenyl)-1-methyl-1H-pyrazol-4-yl)-7-methoxypyrido[3,2-d]pyrimidin-6-yl)-3-oxabicyclo[3.1.0]hexane-1-carboxamide]	1.7	1.1	2.1
CN(C)C12CC(C(=O)Nc3nc4c(-c5cn(C)nc5-c5ccc(F)cc5)ncnc4cc3OC(F)F)(C1)C2 [Example 466, N-[7-(difluoromethoxy)-4-[3-(4-fluorophenyl)-1-methyl-1H-pyrazol-4-yl]pyrido[3,2-d]pyrimidin-6-yl]-3-(dimethylamino) bicyclo[1.1.1]pentane-1-carboxamide]	31.2	7.3	39
COc1cc2ncnc(-c3cn(C)nc3-c3ccccc3)c2nc1O[C@H](C)c1nnc(C)s1 (single isomer, unassigned) [Example 52, (R)-2-(1-((7-methoxy-4-(1-methyl-3-phenyl-1H-pyrazol-4-yl)pyrido[3,2-d]pyrimidin-6-yl)oxy)ethyl)-5-methyl-1,3,4-thiadiazole or (S)-2-(1-((7-methoxy-4-(1-methyl-3-phenyl-1H-pyrazol-4-yl)pyrido[3,2-d]pyrimidin-6-yl)oxy)ethyl)-5-methyl-1,3,4-thiadiazole]	6.3	2.7	12.3
COc1cc2ncnc(-c3cn(CC(F)(F)F)nc3-c3ccccc3)c2cc1OC(=O)N1CCN(C)C[C@@H]1C [Example 60, 7-methoxy-4-(3-phenyl-1-(2,2,2-trifluoroethyl)-1H-pyrazol-4-yl)quinazolin-6-yl(S)-2,4-dimethylpiperazine-1-carboxylate]	3.6	3.6	5.1
COc1cc2ncnc(-c3cn(C)nc3-c3ccccc3)c2cc1NC(=O)N1C[C@@H](C)N(C)C[C@@H]1C [Example 182, (2S,5R)—N-(7-methoxy-4-(1-methyl-3-phenyl-1H-pyrazol-4-yl)quinazolin-6-yl)-2,4,5-trimethylpiperazine-1-carboxamide]	5.2	1.8	4.1
COc1cc2ncnc(-c3cn(C)nc3-c3ccccc3F)c2cc1NC(=O)[C@]12C[C@H]1CN(C)C2 (single isomer, unassigned) [Example 255, (1R,5R)—N-(4-(3-(2-fluorophenyl)-1-methyl-1H-pyrazol-4-yl)-7-methoxyquinazolin-6-yl)-3-methyl-3-azabicyclo[3.1.0]hexane-1-carboxamide or (1S,5S)—N-(4-(3-(2-fluorophenyl)-1-methyl-1H-pyrazol-4-yl)-7-methoxyquinazolin-6-yl)-3-methyl-3-azabicyclo[3.1.0]hexane-1-carboxamide]	3.8	1.8	2.7

Stronger by IC50 [1], values ahead:

IC50 [1] [nM]	IC50 (EGFR (d746-750)) [nM]	IC50 (EGFR L858R) [nM]	SMILES
1.3	1.4	2.6	CCn1cc(-c2ncnc3cc(OC)c(NC(=O)[C@@]45C[C@@H]4CN(C)C5)nc23)c(-c2ccc(F)cc2)n1 (single isomer, unassigned) [Example 398, (1S,5S)—N-(4-(1-ethyl-3-(4-fluorophenyl)-1H-pyrazol-4-yl)-7-methoxypyrido[3,2-d]pyrimidin-6-yl)-3-methyl-3-azabicyclo[3.1.0]hexane-1-carboxamide or (1R,5R)—N-(4-(1-ethyl-3-(4-fluorophenyl)-1H-pyrazol-4-yl)-7-methoxypyrido[3,2-d]pyrimidin-6-yl)-3-methyl-3-azabicyclo[3.1.0]hexane-1-carboxamide]
0.9	0.5	1	COc1cc2ncnc(-c3cn(C)nc3-c3ccccc3)c2nc1-c1ccc2c(c1)CN(C)C2=O [Example 153, 5-(7-methoxy-4-(1-methyl-3-phenyl-1H-pyrazol-4-yl)pyrido[3,2-d]pyrimidin-6-yl)-2-methylisoindolin-1-one]
1.5	1.2	2.2	COc1cc2ncnc(-c3cn(C)nc3-c3ccccc3)c2cc1-c1cn(C)nc1C [Example 150, 6-(1,3-dimethyl-1H-pyrazol-4-yl)-7-methoxy-4-(1-methyl-3-phenyl-1H-pyrazol-4-yl)quinazoline]
1	0.9	1.6	CCOc1cc2ncnc(-c3cn(C)nc3-c3ccccc3)c2cc1NC(=O)c1cnn(CC)c1 [Example 298, N-(7-ethoxy-4-(1-methyl-3-phenyl-1H-pyrazol-4-yl)quinazolin-6-yl)-1-ethyl-1H-pyrazole-4-carboxamide]
0.3	0.3	0.5	COc1cc2ncnc(-c3cn(C)nc3-c3ccccc3)c2nc1O[C@@H](C)c1cscn1 (single isomer, unassigned) [Example 50, (S)-4-(1-((7-methoxy-4-(1-methyl-3-phenyl-1H-pyrazol-4-yl)pyrido[3,2-d]pyrimidin-6-yl)oxy)ethyl)thiazole or (R)-4-(1-((7-methoxy-4-(1-methyl-3-phenyl-1H-pyrazol-4-yl)pyrido[3,2-d]pyrimidin-6-yl)oxy)ethyl)thiazole]
0.4	1.1	1.4	CN1CCC(n2cc(-c3ccc4c(-c5c[nH]nc5-c5ccccc5)ncnc4c3)cn2)CC1 [Example 442, 7-(1-(1-methylpiperidin-4-yl)-1H-pyrazol-4-yl)-4-(3-phenyl-1H-pyrazol-4-yl)quinazoline]
1.4	0.9	1.7	CCn1cc(-c2ncnc3cc(OC)c(NC(=O)c4cnn(C(F)(F)F)c4)cc23)c(-c2ccccc2)n1 [Example 307, N-(4-(1-ethyl-3-phenyl-1H-pyrazol-4-yl)-7-methoxyquinazolin-6-yl)-1-(trifluoromethyl)-1H-pyrazole-4-carboxamide]
